Patent US8394969B2, “Cyclic benzimidazole derivatives useful as anti-diabetic agents” (Merck Sharp & Dohme Corp., priority 2008, dated 2013)
Structures can show the parent of a compound that is named as a salt.

Each molecule was assayed against recombinant human AMPK complex 1 (containing α1β1γ1) (Homo sapiens, UniProt Q13131+Q9Y478) (assay: […] (in vitro AMPK activation assay)). Conditions: not given.
Sequence of recombinant human AMPK complex 1 (containing α1β1γ1) (Q13131 whole entry): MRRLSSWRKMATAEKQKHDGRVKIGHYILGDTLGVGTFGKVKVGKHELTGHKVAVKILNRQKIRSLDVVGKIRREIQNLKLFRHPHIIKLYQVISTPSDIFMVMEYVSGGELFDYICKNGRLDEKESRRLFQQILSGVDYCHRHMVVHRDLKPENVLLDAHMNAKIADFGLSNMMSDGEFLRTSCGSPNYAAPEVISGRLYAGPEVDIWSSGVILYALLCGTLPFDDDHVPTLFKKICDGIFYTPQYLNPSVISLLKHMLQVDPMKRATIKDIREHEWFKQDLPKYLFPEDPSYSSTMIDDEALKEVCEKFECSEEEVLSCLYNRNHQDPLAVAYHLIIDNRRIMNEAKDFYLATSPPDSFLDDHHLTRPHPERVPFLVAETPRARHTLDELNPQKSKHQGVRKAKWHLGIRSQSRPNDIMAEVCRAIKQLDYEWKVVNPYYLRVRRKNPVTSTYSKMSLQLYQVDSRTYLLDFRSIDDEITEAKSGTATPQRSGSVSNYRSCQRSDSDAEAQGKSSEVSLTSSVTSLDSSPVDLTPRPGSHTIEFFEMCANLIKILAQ
Sequence of recombinant human AMPK complex 1 (containing α1β1γ1) (Q9Y478 whole entry): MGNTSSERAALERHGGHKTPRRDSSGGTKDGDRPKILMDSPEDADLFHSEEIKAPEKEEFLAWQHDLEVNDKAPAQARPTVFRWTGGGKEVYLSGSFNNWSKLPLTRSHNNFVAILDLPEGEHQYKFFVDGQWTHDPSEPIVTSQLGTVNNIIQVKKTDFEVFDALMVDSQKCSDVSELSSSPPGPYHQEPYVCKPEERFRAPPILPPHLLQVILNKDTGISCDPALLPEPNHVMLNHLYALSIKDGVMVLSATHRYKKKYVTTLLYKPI
Sequence of recombinant human AMPK complex 1 (containing α1β1γ1) (P54619 whole entry partner): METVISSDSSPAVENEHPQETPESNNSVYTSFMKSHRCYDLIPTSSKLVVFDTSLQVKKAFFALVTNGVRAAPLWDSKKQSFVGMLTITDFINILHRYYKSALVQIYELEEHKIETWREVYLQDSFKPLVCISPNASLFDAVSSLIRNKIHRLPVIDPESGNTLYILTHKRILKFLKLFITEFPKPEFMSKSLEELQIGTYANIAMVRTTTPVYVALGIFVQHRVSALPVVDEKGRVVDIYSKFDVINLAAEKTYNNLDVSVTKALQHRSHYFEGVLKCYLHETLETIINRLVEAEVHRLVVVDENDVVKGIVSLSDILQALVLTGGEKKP
Assay type: biochemical
With `CCCc1ccc(-c2cc3nc(Oc4ccc(C)c(C(=O)O)c4)[nH]c3cc2Cl)cc1.N` [Example 348, Ammonium 5-{[6-chloro-5-(4-propylphenyl)-1H-benzimidazol-2-yl]oxy}-2-methylbenzoate] the “% Maximum AMP Activation of human AMPK Complex 1” value was “greater than 80%”.

Same assay, conditions: recombinant human AMPK complex 1 (α1β1γ1); basal activity subtracted; read-out: % Maximum AMP Activation of human AMPK Complex 1
`COC(=O)c1cc(Oc2nc3cc(C#Cc4ccc(OC(C)=O)cc4)c(Cl)cc3[nH]2)ccc1C` [Example 117, 5-[5-(4-Acetoxy-phenylethynyl)-6-chloro-1H-benzoimidazol-2-yloxy]-2-methyl-benzoic acid methyl ester] gave an Emax greater than 80%. `Cc1ccc(Oc2nc3cc(C#Cc4ccncc4)c(Cl)cc3[nH]2)cc1C(=O)O` [Example 87, 5-(6-Chloro-5-pyridin-4-ylethynyl-1H-benzoimidazol-2-yloxy)-2-methyl-benzoic acid] was tested, and the Emax was greater than 80%. Work on `Cc1ccc(Oc2nc3cc(-c4ccc(C5CCCC5)cc4)c(Cl)cc3[nH]2)cc1C(=O)O` [Example 258, 2-(3-carboxy-4-methylphenoxy)-6-chloro-5-(4-cyclopentylphenyl)-1H-3,1-benzimidazol-3-ium trifluoroacetate] yielded an Emax greater than 80%. `Cc1ccc(Oc2nc3cc(-c4cncc5ccccc45)c(Cl)cc3[nH]2)cc1C(=O)O` [Example 336, 2-(3-carboxy-4-methylphenoxy)-6-chloro-5-isoquinolin-4-yl-1H-3,1-benzimidazol-3-ium formate] was tested, and the Emax was greater than 80%. Work on `COC(=O)Cn1c(Oc2ccc(C)c(C(=O)OC)c2)nc2cc(-c3ccc(-c4ccccc4)cc3)c(Cl)cc21` [Example 223, 5-(5-Biphenyl-4-yl-6-chloro-1-methoxycarbonyl-methyl-1H-benzoimidazol-2-yloxy)-2-methyl-benzoic acid methyl ester] yielded an Emax greater than 80%. With `Cc1ccc(Oc2nc3cc(-c4ccc(-c5c(C)n[nH]c5C)cc4)c(Cl)cc3[nH]2)cc1C(=O)O` [Example 203, 5-({6-chloro-5-[4-(3,5-dimethyl-1H-pyrazol-4-yl)phenyl]-1H-benzimidazol-2-yl}oxy)-2-methylbenzoic acid] the Emax was greater than 80%. For `Cc1ccc(Oc2nc3cc(-c4ccc5c(c4)cc(CO)n5C)c(Cl)cc3[nH]2)cc1C(=O)O` [Example 274, 5-[6-Chloro-5-(2-hydroxymethyl-1-methyl-1H-indol-5-yl)-1H-benzoimidazol-2-yloxy]-2-methyl-benzoic acid], the Emax was greater than 80%. In the case of `O=C(O)c1cc(Oc2nc3cc(-c4ccc(CO)cc4)c(Cl)cc3[nH]2)ccc1Cl` [Example 60, 2-Chloro-5-[6-chloro-5-(4-hydroxymethyl-phenyl)-1H-benzoimidazol-2-yloxy]-benzoic acid], the Emax was greater than 80%. `COC(=O)c1cc(Oc2nc3cc(-c4ccc(-c5ccccc5)cc4)c(Cl)cc3[nH]2)cc(C)c1C` [Example 14, 5-(5-Biphenyl-4-yl-6-chloro-1H-benzoimidazol-2-yloxy)-2,3-dimethyl-benzoic acid methyl ester] showed an Emax greater than 80%. In the case of `Cc1ccc(Oc2nc3cc(-c4ccc(C5CCCCC5)cc4)c(Cl)cc3[nH]2)cc1C(=O)O` [Example 357, 5-[6-Chloro-5-(4-cyclohexyl-phenyl)-1H-benzoimidazol-2-yloxy]-2-methyl-benzoic acid], the Emax was greater than 80%. Molecule `O=C(O)c1cccc(Oc2nc3cc(-c4ccc(-c5ccccc5)cc4)c(Cl)cc3[nH]2)n1` [Example 214, 6-(5-Biphenyl-4-yl-6-chloro-1H-benzoimidazol-2-yloxy)-pyridine-2-carboxylic acid] has an Emax greater than 80%. With `O=C(O)c1cccc(Sc2nc3cc(-c4ccc(-c5ccccc5)cc4)c(Cl)cc3[nH]2)c1` [Example 64, 3-[(5-biphenyl-4-yl-6-chloro-1H-benizmidazol-2-yl)thio]benzoic acid] the Emax was greater than 80%. Molecule `COC(=O)c1cc(Oc2nc3cc(C#Cc4cccc(OC)c4)c(Cl)cc3[nH]2)ccc1C` [Example 109, 5-[6-Chloro-5-(3-methoxy-phenylethynyl)-1H-benzoimidazol-2-yloxy]-2-methyl-benzoic acid methyl ester] has an Emax greater than 80%.
